Source: US20060153789A1, “Stimulation of hair regrowth” (priority 2002, published 2006)

How the values were obtained:
[1] = system: C57BL/6 mice given Cobalt 60 gamma radiation; assay: Restoration of radiation-induced hair loss in mice, aerosol treatment (Example 2); assay type: in vivo, mouse; details: mice pre-exposed to 5 Gy or 2.5 Gy, then 10 Gy at day 75; hair loss over approximately 20% of body; one micromolar by aerosol 15 min/day, 9 days of treatment
Description: C57BL/6 mice were given a Cobalt 60 gamma radiation treatment on Sep. 24, 2002 of either 10 Gy, 7.5 Gy, 5 Gy, or 2.5 Gy. The 10 Gy mice died at an average of 11.3 days after the radiation exposure. All of the other mice in the other radiation exposure groups survived at least until Dec. 18, 2002. At 75 days after the initial radiation exposure, the 5 Gy and 2.5 Gy mice were administered a 10 Gy dose of Cobalt 60 gamma radiation. On the day of the second 10 Gy radiation exposure, it was noted that the 5 Gy and 2.5 Gy mice had hair loss over approximately 20% of their body with the most significant hair loss in their leg areas and around their ears. Half of the 5 Gy and 2.5 Gy (N=10) mice were administered a one micromolar Homspera™ dose by aerosol for 15 min/day beginning the day of the 10 Gy radiation exposure.

[2] = system: C57BL/6 mice, lethal dose of gamma radiation (7.75 Gy); assay: Hair retention and immune status after a lethal dose of gamma radiation (Example 3); assay type: in vivo, mouse; details: for hair retention: photographed at Day +56 and Day +90 after radiation
Excerpt: FIG. 2A. Group 1 (90 day treatment of Homspera™) mice photographed at day 56 after radiation.
FIG. 2B. Group 2 (35 day treatment of Homspera™) mice photographed at day 56 after radiation.
FIG. 2C. Group 1 (90 day treatment of Homspera™) mice photographed at day 90 after radiation.
FIG. 2D. Group 2 (35 day treatment of Homspera™) mice photographed at day 90 after radiation.
C57BL/6 mice were divided into three groups. Groups 1 and 2 underwent a lethal dose of gammna radiation (7.75 Gy) on July 11th. Group 1 mice were treated with Homspera™ (50 micromolar for 35 days and then a maintenance dose of 10 micromolar until +90 days), and then they were killed at +90 days post-lethal radiation (October 9th). Their immune system status was normal compared to control mice (Group 3) that had not been treated with radiation and had not been treated with Homspera™. Group 2 mice received Homspera™ treatment for 35 days after radiation, and then the Homspera™ treatment was completely stopped.
There are two sets of pictures of the Group 1 and Group 2 mice: one set of pictures taken on September 5th at Day +56 after radiation (FIGS. 2A and 2B), and the other on October 9th at Day +90 after radiation (FIGS. 2C and 2D).

[3] = system: C57BL/6 mouse irradiated with 7.5 Gy gamma radiation; assay: Hair regrowth in an irradiated mouse (Example 1); assay type: in vivo; details: 12 days of treatment, FIG. 1A, untreated control showed no new growth hair
Excerpt: FIG. 1A. A C57BL/6 mouse irradiated with 7.5 Gy gamma radiation on Sep. 24, 2003 and given 12 days of [Sar, Met(02)^11]-substance P (Homspera™) treatment.
FIG. 1B. A C57BL/6 mouse irradiated with 7.5 Gy gamma radiation on Sep. 24, 2003 and given no Homspera™ treatment.
A C57BL/6 mouse was irradiated with 7.5 Gy gamma radiation on Sep. 24, 2003 and given 12 days of [Sar, Met(02)^11]-substance P (Homspera™) treatment. […] As a control, a C57BL/was 6 mouse irradiated with 7.5 Gy gamma radiation on Sep. 24, 2003 and given no Homspera™ treatment. No new growth hair was observed.

Substance: [Sar, Met(02)^11]-substance P [Homspera™]
- restoration of hair loss [1]: restored their hair loss
- hair retention ([2]; Group 1: 7.75 Gy, 90 day treatment): retained their hair
- immune system status ([2]; Group 1: 7.75 Gy, 50 micromolar for 35 days, then 10 micromolar until +90 days, at +90 days, compared to untreated non-irradiated control mice (Group 3)): normal
- hair retention ([2]; Group 2: 7.75 Gy, 35 day treatment then stopped): retained their hair
- new hair growth [3]: New growth (black) hair was observed
